Assay results published in paper PMC10331583, “Control of fibrosis with enhanced safety via asymmetric inhibition of prolyl‐tRNA synthetase 1” (EMBO Molecular Medicine, 2023).
“And” between values parts separate entries of the source, which are not always exact repeats. Equal entries are not always repeated. Where two headings read alike, the source gives them in different places.

What was measured:
WI‐26 VA4 cells [1] = experiment: Collagen ELISA (secreted pro‐collagen I)
WI‐26 VA4 cells [2] = experiment: CellTiter‐Glo assay (cytotoxicity); details: Homo sapiens; for activity at 0.03 µM: WI26VA4, read-out: CellTiter-Glo % of control, 30 nM; for activity at 0.1 µM: WI26VA4, read-out: CellTiter-Glo % of control, 100 nM; for activity at 0.3 µM: WI26VA4, read-out: CellTiter-Glo % of control, 300 nM; for activity at 1 µM: WI26VA4, read-out: CellTiter-Glo % of control, 1000 nM; for activity at 3 µM: WI26VA4, read-out: CellTiter-Glo % of control, 3000 nM; for activity at 10 µM: WI26VA4, read-out: CellTiter-Glo % of control, 10000 nM; for activity at 30 µM: WI26VA4, read-out: CellTiter-Glo % of control, 30000 nM; for activity at 100 µM: WI26VA4, read-out: CellTiter-Glo % of control, 100000 nM

For `O=C(C[C@H]1NCCC[C@@H]1O)Cn1cnc2ccc(-c3cccc(F)c3)cc21` [DWN11251], the “Collagen, % of control (single replicates per experiment)” value (WI‐26 VA4 cells [1]; 10 nM, 0.01 µM) was 112.57 % of control and 103.72 % of control and 109.80 % of control and 111.67 % of control and 110.64 % of control, the “Collagen, % of control (single replicates per experiment)” value (WI‐26 VA4 cells [1]; 100 nM, 0.1 µM) was 84.02 % of control and 93.58 % of control and 96.09 % of control and 96.94 % of control and 92.86 % of control and the “Collagen, % of control (single replicates per experiment)” value (WI‐26 VA4 cells [1]; 300 nM, 0.3 µM) was 47.78 % of control and 47.63 % of control and 53.20 % of control and 53.43 % of control and 55.58 % of control. The “Collagen, % of control (single replicates per experiment)” value (WI‐26 VA4 cells [1]; 1000 nM, 1 µM) was 11.57 % of control and 11.31 % of control and 12.08 % of control and 14.51 % of control and 14.77 % of control, the “Collagen, % of control (single replicates per experiment)” value (WI‐26 VA4 cells [1]; 3000 nM, 3 µM) was 3.47 % of control and 2.67 % of control and 3.07 % of control and 3.55 % of control and 4.03 % of control and the “Collagen, % of control (single replicates per experiment)” value (WI‐26 VA4 cells [1]; 10000 nM, 10 µM) was 2.75 % of control and 2.12 % of control and 2.44 % of control and 2.49 % of control and 2.64 % of control. For the same compound, the “Collagen, % of control (single replicates per experiment)” value (WI‐26 VA4 cells [1]; 30000 nM, 30 µM) was 3.52 % of control, the “CC50/collagen IC50” value (WI‐26 VA4 cells [1]; Fig 5E) was 7.08 and the IC50 (WI‐26 VA4 cells [1]; Homo sapiens, WI26VA4, read-out: Collagen IC50 (best-fit value), log(inhibitor) vs. response, variable slope (four parameters) (converted)) was 257 nM. The activity at 0.01 µM (WI‐26 VA4 cells [1]; Homo sapiens, WI26VA4, read-out: Collagen, % of control (single replicates per experiment), 10 nM) was 112%, the activity at 0.03 µM (WI‐26 VA4 cells [1]; Homo sapiens, WI26VA4, read-out: Collagen, % of control (single replicates per experiment), 30 nM) was 109% and the activity at 0.1 µM (WI‐26 VA4 cells [1]; Homo sapiens, WI26VA4, read-out: Collagen, % of control (single replicates per experiment), 100 nM) was 81.3%. The activity at 0.3 µM (WI‐26 VA4 cells [1]; Homo sapiens, WI26VA4, read-out: Collagen, % of control (single replicates per experiment), 300 nM) was 42.9%, the activity at 1 µM (WI‐26 VA4 cells [1]; Homo sapiens, WI26VA4, read-out: Collagen, % of control (single replicates per experiment), 1000 nM) was 10.2% and the activity at 3 µM (WI‐26 VA4 cells [1]; Homo sapiens, WI26VA4, read-out: Collagen, % of control (single replicates per experiment), 3000 nM) was 2.81%. The activity at 10 µM (WI‐26 VA4 cells [1]; Homo sapiens, WI26VA4, read-out: Collagen, % of control (single replicates per experiment), 10000 nM) was 2.31%, the activity at 30 µM (WI‐26 VA4 cells [1]; Homo sapiens, WI26VA4, read-out: Collagen, % of control (single replicates per experiment), 30000 nM) was 2.54% and the activity at 0.01 µM (WI‐26 VA4 cells [1]; Homo sapiens, WI26VA4, read-out: Collagen, % of control, average, 10 nM, average) was 110%. The activity at 0.03 µM (WI‐26 VA4 cells [1]; Homo sapiens, WI26VA4, read-out: Collagen, % of control, average, 30 nM, average) was 108%, the activity at 0.1 µM (WI‐26 VA4 cells [1]; Homo sapiens, WI26VA4, read-out: Collagen, % of control, average, 100 nM, average) was 90.8% and the activity at 0.3 µM (WI‐26 VA4 cells [1]; Homo sapiens, WI26VA4, read-out: Collagen, % of control, average, 300 nM, average) was 50.1%. It also gave an activity at 1 µM (WI‐26 VA4 cells [1]; Homo sapiens, WI26VA4, read-out: Collagen, % of control, average, 1000 nM, average) of 12.4%, an activity at 3 µM (WI‐26 VA4 cells [1]; Homo sapiens, WI26VA4, read-out: Collagen, % of control, average, 3000 nM, average) of 3.27% and an activity at 10 µM (WI‐26 VA4 cells [1]; Homo sapiens, WI26VA4, read-out: Collagen, % of control, average, 10000 nM, average) of 2.46%. The activity at 30 µM (WI‐26 VA4 cells [1]; Homo sapiens, WI26VA4, read-out: Collagen, % of control, average, 30000 nM, average) was 2.88%, the “Collagen HillSlope (best-fit value)” value (WI‐26 VA4 cells [1]; log(inhibitor) vs. response, variable slope (four parameters)) was -1.623 and the “Collagen LogIC50 (best-fit value)” value (WI‐26 VA4 cells [1]; log(inhibitor) vs. response, variable slope (four parameters), concentration in nM) was 2.409. The “Relative (CC50)/(collagen IC50)” value (WI‐26 VA4 cells [1]; relative to HF, Fig 5E) was 2.11, the activity at 0.0001 µM (WI‐26 VA4 cells [2]; WI26VA4, read-out: CellTiter-Glo % of control, 0.1 nM, Experiment #1, replicates) was 92.7% and the activity at 0.0001 µM (WI‐26 VA4 cells [2]; WI26VA4, read-out: CellTiter-Glo % of control, 0.1 nM, Experiment #2, replicates) was 120%. For the same compound, the activity at 0.0003 µM (WI‐26 VA4 cells [2]; WI26VA4, read-out: CellTiter-Glo % of control, 0.3 nM, Experiment #1, replicates) was 111%, the activity at 0.0003 µM (WI‐26 VA4 cells [2]; WI26VA4, read-out: CellTiter-Glo % of control, 0.3 nM, Experiment #2, replicates) was 121% and the activity at 0.001 µM (WI‐26 VA4 cells [2]; WI26VA4, read-out: CellTiter-Glo % of control, 1 nM, Experiment #1, replicates) was 105%. For the same compound, the activity at 0.001 µM (WI‐26 VA4 cells [2]; WI26VA4, read-out: CellTiter-Glo % of control, 1 nM, Experiment #2, replicates) was 107%, the activity at 0.003 µM (WI‐26 VA4 cells [2]; WI26VA4, read-out: CellTiter-Glo % of control, 3 nM, Experiment #1, replicates) was 122% and the activity at 0.003 µM (WI‐26 VA4 cells [2]; WI26VA4, read-out: CellTiter-Glo % of control, 3 nM, Experiment #2, replicates) was 111%. For the same compound, the activity at 0.01 µM (WI‐26 VA4 cells [2]; WI26VA4, read-out: CellTiter-Glo % of control, 10 nM, Experiment #1, replicates) was 100%, the activity at 0.01 µM (WI‐26 VA4 cells [2]; WI26VA4, read-out: CellTiter-Glo % of control, 10 nM, Experiment #2, replicates) was 121% and the activity at 0.03 µM (WI‐26 VA4 cells [2]; Experiment #1, replicates) was 108%. The activity at 0.03 µM (WI‐26 VA4 cells [2]; Experiment #2, replicates) was 124%, the activity at 0.1 µM (WI‐26 VA4 cells [2]; Experiment #1, replicates) was 112% and the activity at 0.1 µM (WI‐26 VA4 cells [2]; Experiment #2, replicates) was 126%. For the same compound, the activity at 0.3 µM (WI‐26 VA4 cells [2]; Experiment #1, replicates) was 98.2%, the activity at 0.3 µM (WI‐26 VA4 cells [2]; Experiment #2, replicates) was 105% and the activity at 1 µM (WI‐26 VA4 cells [2]; Experiment #1, replicates) was 73.2%. It also gave an activity at 1 µM (WI‐26 VA4 cells [2]; Experiment #2, replicates) of 76.4%, an activity at 3 µM (WI‐26 VA4 cells [2]; Experiment #1, replicates) of 36.1% and an activity at 3 µM (WI‐26 VA4 cells [2]; Experiment #2, replicates) of 46.1%. For the same compound, the activity at 10 µM (WI‐26 VA4 cells [2]; Experiment #1, replicates) was 26.6%, the activity at 10 µM (WI‐26 VA4 cells [2]; Experiment #2, replicates) was 30% and the activity at 30 µM (WI‐26 VA4 cells [2]; Experiment #1, replicates) was 12.4%. The activity at 30 µM (WI‐26 VA4 cells [2]; Experiment #2, replicates) was 11.9%, the activity at 100 µM (WI‐26 VA4 cells [2]; Experiment #1, replicates) was 1.59% and the activity at 100 µM (WI‐26 VA4 cells [2]; Experiment #2, replicates) was 0.95%. The activity at 0.0001 µM (WI‐26 VA4 cells [2]; WI26VA4, read-out: CellTiter-Glo % of control, average, 0.1 nM, average) was 110%, the activity at 0.0003 µM (WI‐26 VA4 cells [2]; WI26VA4, read-out: CellTiter-Glo % of control, average, 0.3 nM, average) was 116% and the activity at 0.001 µM (WI‐26 VA4 cells [2]; WI26VA4, read-out: CellTiter-Glo % of control, average, 1 nM, average) was 108%. The activity at 0.003 µM (WI‐26 VA4 cells [2]; WI26VA4, read-out: CellTiter-Glo % of control, average, 3 nM, average) was 112% and the activity at 0.01 µM (WI‐26 VA4 cells [2]; WI26VA4, read-out: CellTiter-Glo % of control, average, 10 nM, average) was 113%.
